Counter-ions that a name gives are not always drawn.
Key:
[1] = tested on: Staphylococcus aureus MW2 delta-mecA (mecA-); experiment: IC50 (growth, competition assay); conditions: cefoxitin: subinhibitory
Summary of the method: (§1)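 Pre-induced, 1:1-mixed fluorescent S. aureus MW2 mecA+ and ΔmecA strains were grown 20 h at 37 °C, 90% humidity, unshaken, in LB with a daily-set subinhibitory cefoxitin dose, in 1536-well plates. Compounds were given on five- or nine-point 2-fold gradients, in two dye-swapped replicates. DsRed (540/590) and GFP (485/520) were scaled per plate between single-strain control medians, with No Treatment then set to 0.5. Per-strain IC50 was the dose halving the No Treatment signal, or the maximal signal.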

[2] = tested on: Staphylococcus aureus MW2 (mecA+); experiment: IC50 (growth, competition assay); conditions: cefoxitin: subinhibitory
Summary of the method: as §1

Row | SMILES | IC50 ([1]; fluorescent label: DsRed) [µM] | IC50 ([1]; fluorescent label: GFP) [µM] | IC50 ([2]; fluorescent label: DsRed) [µM] | IC50 ([2]; fluorescent label: GFP) [µM]
1 | COc1ccc(COc2ccc(Cc3cnc(N)nc3N)cc2OC)cc1 [GW2580] | < 9.85 | < 9.85 | 15.1 | 16.2
2 | O=C(O)Cc1cccc(OCCCN(Cc2cccc(C(F)(F)F)c2Cl)CC(c2ccccc2)c2ccccc2)c1 [GW3965 HCl] | < 9.85 | < 9.85 | < 9.85 | < 9.85
3 | O=C1Nc2ccc(I)cc2/C1=C/c1cc(Br)c(O)c(Br)c1 [GW5074] | < 9.85 | < 9.85 | < 9.85 | < 9.85
4 | CC(C)(Sc1ccc(CCN(CCCCC2CCCCC2)C(=O)NC2CCCCC2)cc1)C(=O)O [GW7647] | < 9.85 | < 9.85 | 14.3 | 13.1
5 | COC1=C2C[C@@H](C)C[C@H](OC)[C@H](O)[C@@H](C)/C=C(\C)[C@H](OC(N)=O)[C@@H](OC)/C=C\C=C(/C)C(=O)NC(=CC1=O)C2=O [Geldanamycin] | < 9.85 | < 9.85 | < 9.85 | < 9.85
6 | Nc1ccn([C@@H]2O[C@H](CO)[C@@H](O)C2(F)F)c(=O)n1 [Gemcitabine hydrochloride] | < 9.85 | < 9.85 | < 9.85 | < 9.85
7 | Cc1cc2c(C(C)C)c(O)c(O)c(C=O)c2c(O)c1-c1c(C)cc2c(C(C)C)c(O)c(O)c(C=O)c2c1O [Gossypol] | < 9.85 | < 9.85 | < 9.85 | < 9.85
8 | CC[C@H](c1ccc(O)cc1)[C@@H](CC)c1ccc(O)cc1 [HEXESTROL] | < 9.85 | < 9.85 | < 9.85 | 29.7
9 | COc1ccc(CCN2CCC(Nc3nc4ccccc4n3Cc3ccc(F)cc3)CC2)cc1 [HISMANAL] | 45.1 | 20.2 | 80.2 | 106
10 | O=c1cc(O)cc(/C=C/c2ccc(O)c(O)c2)o1 [Hispidin] | 50.9 | 59.1 | 58.9 | 54.8
11 | COC1=C(OC)C(=O)C(CCCCCCCCCCO)=C(C)C1=O [IDEBENONE] | 15.5 | 15 | 22.8 | 28.8
12 | O=C(c1ccc(Nc2nccc(-c3cc4ccccc4s3)n2)cc1)N1CCC(N2CCCC2)CC1 [IKK-16] | 18.3 | 17.7 | 49.4 | 56.8
13 | CCC(=O)O[C@H]1[C@H](O[C@@H]2[C@@H](C)[C@H](O[C@H]3C[C@@](C)(OC)[C@@H](O)[C@H](C)O3)[C@@H](C)C(=O)O[C@H](CC)[C@@](C)(O)[C@H](O)[C@@H](C)C(=O)[C@H](C)C[C@@]2(C)O)O[C@H](C)C[C@@H]1N(C)C [ILOSONE] | < 9.85 | < 9.85 | < 9.85 | 17
14 | O=C(Nc1cc(C(F)(F)F)cc(C(F)(F)F)c1)c1cc(Cl)ccc1O [IMD0354] | < 9.85 | < 9.85 | < 9.85 | < 9.85
15 | Oc1c(I)cc(I)c2cccnc12 [IOQUIN] | < 9.85 | < 9.85 | 20.7 | 17.8
16 | Oc1ccc2ccccc2c1SSc1c(O)ccc2ccccc12 [IPA-3] | < 9.85 | < 9.85 | < 9.85 | < 9.85
17 | CC1(C)C=Cc2c(c3c(c4c(=O)c(-c5ccc(O)c(O)c5)coc24)OC(C)(C)CC3)O1 [ISOPOMIFERIN] | 11.8 | < 9.85 | 27 | 26.6
18 | O=C1NC(c2cccc([N+](=O)[O-])c2)=CCN1c1ccccc1O [Icilin] | 19.3 | 25.5 | 63.3 | 54.4
19 | CCc1cc2c(cc1CC)CC(NC[C@H](O)c1ccc(O)c3[nH]c(=O)ccc13)C2 [Indacaterol Maleate] | 53.8 | 32.2 | 71.1 | 91.4

Row | SMILES | IC50 ([1]; fluorescent label: DsRed) [µM] | IC50 ([1]; fluorescent label: GFP) [µM] | IC50 ([2]; fluorescent label: DsRed) [µM] | IC50 ([2]; fluorescent label: GFP) [µM]
20 | CN[C@@H]1C[C@@H](c2ccc(Cl)c(Cl)c2)c2ccccc21 [Indatraline hydrochloride] | 36.2 | 52.3 | 70.1 | 98.4
21 | O=C(/C=C/c1ccc(O)cc1)c1ccc(O)cc1O [Isoliquiritigenin] | 27.5 | 17 | 130 | > 150
22 | CC(C)(C)c1cc(C(C)(C)C)c(NC(=O)c2c[nH]c3ccccc3c2=O)cc1O [Ivacaftor (VX-770)] | 1.27 | 1.6 | 9.86 | 14.8
23 | Oc1ccc(/C=C/c2ccc(/C=C/c3ccc(O)cc3)c(Br)c2)cc1 [K114] | < 9.85 | < 9.85 | < 9.85 | < 9.85
24 | CC(=O)OCC1=C(C(=O)O)N2C(=O)[C@@H](NC(=O)Cc3cccs3)[C@H]2SC1 [KEFLIN] | < 9.85 | < 9.85 | < 9.85 | < 9.85
25 | CC[C@H]1OC(=O)[C@H](C)C(=O)[C@H](C)[C@@H](O[C@@H]2O[C@H](C)C[C@H](N(C)C)[C@H]2O)[C@](C)(OC)C[C@@H](C)C(=O)[C@H](C)[C@H]2N(CCCCn3cnc(-c4cccnc4)c3)C(=O)O[C@]12C [KETEK] | < 9.85 | < 9.85 | < 9.85 | < 9.85
26 | CC(=O)N1CCN(c2ccc(OCC3COC(Cn4ccnc4)(c4ccc(Cl)cc4Cl)O3)cc2)CC1 (stereo not drawn) [KETOZOLE] | 50.6 | 32.2 | 112 | 132
27 | CC[C@@H](C(=O)[C@@H](C)[C@@H](O)[C@H](C)[C@@H]1O[C@@H]([C@@H](CC)C(=O)O)CC[C@@H]1C)[C@H]1O[C@]2(C=C[C@@H](O)[C@]3(CC[C@@](C)([C@H]4CC[C@](O)(CC)[C@H](C)O4)O3)O2)[C@H](C)C[C@@H]1C [KOKCISAN] | < 9.85 | 32.4 | 31.9 | < 9.85
28 | N[C@@H](Cc1cc(I)c(Oc2cc(I)c(O)c(I)c2)c(I)c1)C(=O)O [L-Thyroxine] | < 9.85 | < 9.85 | < 9.85 | < 9.85
29 | OC(c1cc(C(F)(F)F)nc2c(C(F)(F)F)cccc12)C1CCCCN1 (stereo not drawn) [LARIAM] | < 9.85 | < 9.85 | < 9.85 | < 9.85
30 | COC(=O)c1c(C)c2c(c(C)c1O)OC(=O)c1c(C)c(Cl)c(O)c(Cl)c1O2 [LEOIDIN] | < 9.85 | < 9.85 | < 9.85 | < 9.85
31 | C[C@H]1COc2c(N3CCN(C)CC3)c(F)cc3c(=O)c(C(=O)O)cn1c23 [LEVAQUIN] | < 9.85 | < 9.85 | < 9.85 | < 9.85
32 | CCC[C@@H]1C[C@@H](C(=O)N[C@@H]([C@H]2O[C@H](SC)[C@H](O)[C@@H](O)[C@H]2O)[C@@H](C)O)N(C)C1 [LINCOCIN] | < 9.85 | < 9.85 | < 9.85 | < 9.85
33 | N=C(NCCCCCCNC(=N)NC(=N)Nc1ccc(Cl)cc1)NC(=N)Nc1ccc(Cl)cc1 [LISIUM] | < 9.85 | < 9.85 | < 9.85 | < 9.85
34 | Oc1c(Cl)cc(Cl)cc1Sc1cc(Cl)cc(Cl)c1O [LOROTHIDOL] | < 9.85 | < 9.85 | < 9.85 | < 9.85
35 | O=C(CCCCCN1CCN(c2ccccc2-c2ccccc2)CC1)NC1CCCc2ccccc21 (stereo not drawn) [LP 12 hydrochloride hydrate] | < 9.85 | < 9.85 | 17.2 | 23.3
36 | CNCCCC12CCC(c3ccccc31)c1ccccc12 [LUDIOLMIL] | 31.2 | 48.5 | > 150 | 134
37 | CCOC(=O)[C@@H](N)Cc1ccc(-c2cc(O[C@H](c3ccc(Cl)cc3-n3ccc(C)n3)C(F)(F)F)nc(N)n2)cc1 [LX1606 hippurate] | < 9.85 | < 9.85 | 21.7 | 19.2
38 | O=S1(=O)N(CCN2CC=C(c3c[nH]c4cc(F)ccc34)CC2)c2cccc3c2N1CCC3 [LY-367,265] | < 9.85 | 13.1 | 39 | 45

Row | SMILES | IC50 ([1]; fluorescent label: DsRed) [µM] | IC50 ([1]; fluorescent label: GFP) [µM] | IC50 ([2]; fluorescent label: DsRed) [µM] | IC50 ([2]; fluorescent label: GFP) [µM]
39 | C[C@H]1COc2c(N3CCN(C)CC3)c(F)cc3c(=O)c(C(=O)O)cn1c23 [Levofloxacin (Levaquin)] | < 0.498 | < 0.498 | < 0.498 | < 0.498
40 | CC(=O)NC[C@H]1CN(c2ccc(N3CCOCC3)c(F)c2)C(=O)O1 [Linezolid (Zyvox)] | 0.992 | < 0.498 | 2.31 | 2.83
41 | CC(=O)NC[C@H]1CN(c2ccc(N3CCOCC3)c(F)c2)C(=O)O1 [Linezolid] | < 9.85 | < 9.85 | < 9.85 | < 9.85
42 | CCn1cc(C(=O)O)c(=O)c2cc(F)c(N3CCNC(C)C3)c(F)c21 (stereo not drawn) [Lomefloxacin hydrochloride (Maxaquin)] | 0.56 | < 0.498 | 1.76 | 1.78
43 | CCn1cc(C(=O)O)c(=O)c2cc(F)c(N3CCNC(C)C3)c(F)c21 (stereo not drawn) [Lomefloxacin hydrochloride] | < 9.85 | < 9.85 | < 9.85 | < 9.85
44 | O=C(O)c1nn(Cc2ccc(Cl)cc2Cl)c2ccccc12 [Lonidamine] | 22.4 | 15 | 27.7 | 78.2
45 | CN(C)C(=O)C(CCN1CCC(O)(c2ccc(Cl)cc2)CC1)(c1ccccc1)c1ccccc1 [Loperamide hydrochloride] | 31.4 | 39 | 103 | 109
46 | O=c1cc(-c2ccc(O)c(O)c2)oc2cc(O)cc(O)c12 [Luteolin] | 27.6 | 20 | 57 | 56.6
47 | C[C@H]1[C@H](C)CC[C@]2(C(=O)O)CC[C@]3(C)C(=CC[C@@H]4[C@@]5(C)C[C@@H](O)[C@H](O)[C@@](C)(CO)[C@@H]5[C@H](O)C[C@]43C)[C@H]12 [MADECASSIC ACID] | 47.8 | 30 | 53.8 | 54.5
48 | Cn1nnnc1SCC1=C(C(=O)O)N2C(=O)[C@@H](NC(=O)[C@H](OC=O)c3ccccc3)[C@H]2SC1 [MANDOL] | < 9.85 | < 9.85 | 21.3 | 22.2
49 | C=C1c2c(Cl)ccc(O)c2C(=O)C2=C(O)[C@]3(O)C(=O)C(C(N)=O)=C(O)[C@@H](N(C)C)[C@@H]3[C@@H](O)[C@H]12.O=C(O)c1cc(S(=O)(=O)O)ccc1O [MECLAN] | < 9.85 | < 9.85 | < 9.85 | < 9.85
50 | CSc1ccc2c(c1)N(CCC1CCCCN1C)c1ccccc1S2 (stereo not drawn) [MELLARIL] | 18.9 | 13.9 | 66.9 | 87.4
51 | C[C@@H](O)[C@H]1C(=O)N2C(C(=O)O)=C(S[C@@H]3CN[C@H](C(=O)N(C)C)C3)[C@H](C)[C@H]12 [MERREM] | 16 | 11.8 | 89.8 | 98.4
52 | C[CH2][Hg][S]c1ccccc1C(=O)[O-].[Na+] [MERTHIOLATE] | < 9.85 | < 9.85 | < 9.85 | < 9.85
53 | CN1C[C@H](CNC(=O)OCc2ccccc2)C[C@@H]2c3cccc4c3c(cn4C)C[C@H]21 [METERGOLINE] | 16.8 | 15.9 | 50.7 | 53.6
54 | COC(=O)CC[C@@H](C)[C@H]1CC[C@H]2[C@@H]3CC[C@@H]4C[C@H](O)CC[C@]4(C)[C@H]3C[C@H](O)[C@]12C [METHYL DEOXYCHOLATE] | 13.9 | 9.91 | 15.4 | 26.9
55 | COC(=O)/C(C)=C\C[C@@]12OC(C)(C)[C@@H]3C[C@@H](C=C4C(=O)c5c(O)c6c(c(CC=C(C)C)c5O[C@]431)O[C@](C)(CCC=C(C)C)C=C6)C2=O [METHYL GAMBOGATE] | 12.8 | 22.9 | 56.8 | 66.4
56 | CSc1ccc2c(c1)C(N1CCN(C)CC1)Cc1ccccc1S2 (stereo not drawn) [METITEPINE MESYLATE] | 30.8 | 17.8 | 56.9 | 84.8
57 | CCCCCCCc1ccc(CCc2cccc(O)c2C(=O)O)cc1 [MG 149] | < 9.85 | < 9.85 | 13.6 | 14.5

Reference: the supplement of paper PMC7695840
